PubChem BioAssay AID1963967 (Molecular Pharmacology Branch, DTP, NCI, 2024)

Tested on: 855422-203-R-J1-PDC spheroids with HUVEC/MSC, viability
Assay: Anticancer human tumor 855422-203-R-J1-PDC patient-derived bladder carcinoma cell line growth inhibition [PI3K]
Details: for viability, T/C: stronger effect = lower value
Procedure, shortened: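 High-throughput combination screen: PI3K inhibitors crossed with targeted small molecules on complex spheroids of tumor cells, HUVEC and MSCs at 37 degrees C, 5% CO2. Top concentration was at or near clinical Cmax (otherwise 10 microM), with half-log decrements.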
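Also: agents incubated with spheroids for one week before read-out.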
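For viability, T/C in this document: 100% = DMSO vehicle-treated control wells.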

`Cn1cnc2c(F)c(Nc3ccc(Br)cc3Cl)c(C(=O)NOCCO)cc21` + CC(Nc1ncnc2nc[nH]c12)c1cc2cccc(Cl)c2c(=O)n1-c1ccccc1 was tested, and the IC50 (curve of first compound, second compound 0.0316 µM) was > 3000 nM, the IC50 (curve of first compound, second compound 0.1 µM) was > 3000 nM and the IC50 (curve of first compound, second compound 0.316 µM) was 2380 nM. The IC50 (curve of first compound, second compound 1 µM) was 2170 nM, the IC50 (curve of first compound, second compound 3.16 µM) was 1650 nM and the IC50 (curve of first compound, second compound 10 µM) was 529 nM. The viability, T/C (second compound 0.0316 µM, first compound 0.00949 µM) was 116%, the viability, T/C (second compound 0.0316 µM, first compound 0.03 µM) was 90.7% and the viability, T/C (second compound 0.0316 µM, first compound 0.0949 µM) was 114%. For the same compound, the viability, T/C (second compound 0.0316 µM, first compound 0.3 µM) was 87.9%, the viability, T/C (second compound 0.0316 µM, first compound 0.949 µM) was 78.6% and the viability, T/C (second compound 0.0316 µM, first compound 3 µM) was 50.4%. It also gave a viability, T/C (second compound 0.1 µM, first compound 0.00949 µM) of 109%, a viability, T/C (second compound 0.1 µM, first compound 0.03 µM) of 97% and a viability, T/C (second compound 0.1 µM, first compound 0.0949 µM) of 104%. It also gave a viability, T/C (second compound 0.1 µM, first compound 0.3 µM) of 93.8%, a viability, T/C (second compound 0.1 µM, first compound 0.949 µM) of 90.5% and a viability, T/C (second compound 0.1 µM, first compound 3 µM) of 50.1%. For the same compound, the viability, T/C (second compound 0.316 µM, first compound 0.00949 µM) was 91.2%, the viability, T/C (second compound 0.316 µM, first compound 0.03 µM) was 100% and the viability, T/C (second compound 0.316 µM, first compound 0.0949 µM) was 101%. It also gave a viability, T/C (second compound 0.316 µM, first compound 0.3 µM) of 103%, a viability, T/C (second compound 0.316 µM, first compound 0.949 µM) of 80.2% and a viability, T/C (second compound 0.316 µM, first compound 3 µM) of 42.4%. The viability, T/C (second compound 1 µM, first compound 0.00949 µM) was 86.9%, the viability, T/C (second compound 1 µM, first compound 0.03 µM) was 96.3% and the viability, T/C (second compound 1 µM, first compound 0.0949 µM) was 103%. The viability, T/C (second compound 1 µM, first compound 0.3 µM) was 88.1%, the viability, T/C (second compound 1 µM, first compound 0.949 µM) was 79% and the viability, T/C (second compound 1 µM, first compound 3 µM) was 38.7%. It also gave a viability, T/C (second compound 3.16 µM, first compound 0.00949 µM) of 97%, a viability, T/C (second compound 3.16 µM, first compound 0.03 µM) of 96.5% and a viability, T/C (second compound 3.16 µM, first compound 0.0949 µM) of 100%. For the same compound, the viability, T/C (second compound 3.16 µM, first compound 0.3 µM) was 87.3%, the viability, T/C (second compound 3.16 µM, first compound 0.949 µM) was 67.3% and the viability, T/C (second compound 3.16 µM, first compound 3 µM) was 31.8%. It also gave a viability, T/C (second compound 10 µM, first compound 0.00949 µM) of 85.9%, a viability, T/C (second compound 10 µM, first compound 0.03 µM) of 74.1% and a viability, T/C (second compound 10 µM, first compound 0.0949 µM) of 70.9%. It also gave a viability, T/C (second compound 10 µM, first compound 0.3 µM) of 58.6%, a viability, T/C (second compound 10 µM, first compound 0.949 µM) of 41.6% and a viability, T/C (second compound 10 µM, first compound 3 µM) of 21.4%.

For `COc1c(OCCCN2CCOCC2)ccc2c3n(c(=NC(=O)c4cnc(N)nc4)nc12)CCN3`, the viability, T/C (compound 0.00316 µM) was 100% [middle of 8 runs], the viability, T/C (compound 0.01 µM) was 92% [middle of 8 runs] and the viability, T/C (compound 0.0316 µM) was 71.8% [middle of 8 runs]. The viability, T/C (compound 0.1 µM) was 30.5% [middle of 8 runs], the viability, T/C (compound 0.316 µM) was 9.42% [middle of 8 runs] and the viability, T/C (compound 1 µM) was 4.6% [middle of 8 runs]. The IC50 (compound alone, run of 05/09/2023) was 58.2 nM [middle of 8 runs].
